The text below walks through data of patent US12643894B2, “BCL-2 family proteins modulating compounds for cancer treatment” (CENTRE REGIONAL DE LUTTE CONTRE LE CANCER FRANCOIS BACLESSE, priority 2020, dated 2026).

The target of one experiment is T1, Mcl-1 (Homo sapiens, UniProt Q07820).
T1 construct: endogenous in cells; host or cells: IGROV1-R10 (human platinum-resistant ovarian carcinoma)
In words: Target expression analysis by western blot (Mcl-1) in IGROV1-R10 cells. The experiment is classed as cell-based. The settings on record: 24 h exposure, 1 μM. The method, then: (§1) Human platinum resistant ovarian carcinoma cells IGROV1-R10 were used. This cell line was grown in RPMI 1640 medium supplemented with 2 mM Glutamax™, 25 mM HEPES, 10% fetal calf serum, and 33 mM sodium bicarbonate (Fisher Scientific, Illkirch, France). Cells were maintained at 37° C. in a humid atmosphere with 5% C02. Cells were seeded in 25 cm^2 flasks. After 24 h, exponentially growing cells were exposed to 1 μM of compounds for 24 h. CRBN-PBM1-001 targeting both Mcl-1 and CRBN and Pyridoclax were designed and synthetized by the CERMN (Centre d'Etudes et de Recherche sur le Médicament de Normandie) and dissolved in DiMethyl SulfOxide (DMSO, Sigma-Aldrich).
(§2) Cells were rinsed with ice-cold PBS, suspended in a lysis buffer [RIPA: NaCl 150 mM, Tris (pH 8) 50 mM, Triton X100 1%, PMSF 4 mM, EDTA 5 mM, NaF 10 mM, NaPPi 10 mM, Na3VO4 1 mM, aprotinin 0.5 μL/mL and 4.6 mL ultra-pure water] and incubated on ice for 30 min. Lysates were collected after centrifugation (13200 g, 10 min, 4° C.) and protein concentrations were determined using the Bradford assay (Bio-Rad, Hercules, USA). Equal amounts of protein (25 μg) were separated by SDS-PAGE on a 4-15% gradient polyacrylamide Mini-PROTEAN®TGX™ precast gel (Bio-Rad). […] The relative intensities of the protein bands were quantified using the ImageJ software, and the values were normalized to the intensities of the respective Actin signals. […]

Another experiment deals with T2, Bcl-xL (Homo sapiens, UniProt Q07817).
T2 construct: endogenous in cells; host or cells: IGROV1-R10 (human platinum-resistant ovarian carcinoma)
In words: Target expression analysis by western blot (Bcl-xL) in IGROV1-R10 cells. The experiment is classed as cell-based. The settings on record: 24 h exposure, 1 μM. The method, then: as §1, §2

T1 sequence (Q07820 whole entry): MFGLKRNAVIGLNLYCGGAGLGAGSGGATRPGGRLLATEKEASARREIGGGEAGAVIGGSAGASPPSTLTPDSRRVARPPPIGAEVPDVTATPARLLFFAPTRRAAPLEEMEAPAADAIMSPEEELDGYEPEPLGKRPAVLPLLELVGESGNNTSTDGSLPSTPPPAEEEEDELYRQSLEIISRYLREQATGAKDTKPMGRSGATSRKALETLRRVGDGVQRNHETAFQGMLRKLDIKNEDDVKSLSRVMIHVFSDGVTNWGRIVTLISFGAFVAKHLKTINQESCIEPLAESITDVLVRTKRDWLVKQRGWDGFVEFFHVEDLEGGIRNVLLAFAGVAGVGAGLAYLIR
T2 sequence (Q07817 whole entry): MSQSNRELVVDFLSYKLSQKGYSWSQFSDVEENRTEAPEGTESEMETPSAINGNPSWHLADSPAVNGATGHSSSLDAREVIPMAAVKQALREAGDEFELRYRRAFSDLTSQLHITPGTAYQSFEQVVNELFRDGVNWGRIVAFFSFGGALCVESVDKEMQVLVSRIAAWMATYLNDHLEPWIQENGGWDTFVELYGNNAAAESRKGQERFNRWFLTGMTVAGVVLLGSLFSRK

For the molecule `Cc1cc(-c2ncc(-c3cccnc3)cc2/C=C/c2ccccc2)cnc1-c1cccnc1` [Pyridoclax, reference compound], at Mcl-1 (single agent, western blot), the “Mcl-1 expression (modulation)” value was “did not modulate”.

`Cc1cc(-c2ncc(C#CCOCCOCCNc3cccc4c3C(=O)N(C3CCC(=O)NC3=O)C4=O)cc2/C=C/c2ccccc2)cnc1-c1cccnc1` (stereo not drawn) [CRBN-PBM1-001]: the “decrease of Mcl-1 expression” value on Mcl-1 (densitometry analysis of western blot normalized to Actin) is recorded as 52%. Besides, at Bcl-xL, the Bcl-xL expression result was “not affected”.
